Five molecules from article PMC4664966, “Discovery and characterization of novel inhibitors of the sodium-coupled citrate transporter (NaCT or SLC13A5)” (Scientific Reports, 2015) can be followed below.

For series [1], the system named is HEK-293-derived cells. The series is described as follows: Cell viability, CellTiter-glo, HEK-293-derived cells. Also noted: species or system human. The settings on record: HEK-293-derived cell-based assay conditions. The method, then:
For cell viability, cells are incubated with compound for 90 minutes at 37 °C. Following this incubation, 25 μL Cell Titer-Glo (Promega) was added to the plates which were then analyzed on the Envision (luminescence).
Background: Cellular ATP, detected with luciferase, serves as a proxy for viable cell number.

Series [2] can be described thus: Intra-/extracellular unbound concentration ratio (Kpuu) in HEKNaCT cells. The series is classed as in vitro ADME. The settings on record: human, ratio of free intracellular and media concentration after 1 h incubation at 1 μM, geometric mean of 3 replicates ± SD. The method, then:
(§1) kpuu values were determined by measuring total cell and media concentrations corrected for their respective fraction unbound. Detailed methods to determine intra- and extracellular concentrations of compound in the HEKNaCT cells and human hepatocytes will be the subject of a separate manuscript that is under preparation. […]
(§2) Intra- and extracellular concentrations of compound in cellular assays. kpuu values were determined by measuring total cell and media concentrations corrected for their respective […]
(§3) fraction unbound. […]
(§4) The solution was heated to reflux until the total volume was reduced to ~25 mL.
(§5) Hexane (25 mL) was added and the mixture was brought back to reflux than allowed to slowly cool to room temperature. After standing at room temperature for 16 h, the resulting suspension was filtered and dried under high vacuum to yield (S)-2-(4-(tert-butyl)phenethyl)-2-hydroxysuccinic acid (3) as a white solid. The filtrate was allowed to stand at room temperature for 4 days. The solvent evaporated to ~15 mL and large, colorless crystals formed.
(§6) X-ray analysis. Data collection was performed on a Bruker APEX diffractometer at room temperature. Data collection consisted of 3 omega scans and low angle and three at high angle; each with 0.5 step. In addition, 2 phi scans were collected to improve the quality of the […]

Series [3] is described as follows: Intra-/extracellular unbound concentration ratio (Kpuu) in human hepatocytes. Type of series: in vitro ADME. The settings on record: cryopreserved hepatocytes, ratio of free intracellular and media concentration after 1 h incubation at 1 μM, geometric mean of 3 replicates ± SD. The method, then:
as §1, §2, §3, §4, §5, §6

The test system of series [4] is human hepatocytes. The series is described as follows: Incorporation of [14C]-citrate into triglycerides by human hepatocytes. Type of series: cell-based. The following applies: radiolabeled citrate for 24 hours. The method, then: Incorporation of [^14C]-citrate into triglycerides by human hepatocytes was measured using the same procedure as above except cells were incubated with the radioactive citrate for 24 hours. Subsequently, the media was aspirated and 100 μL of isopropyl alcohol:THF (9:1) was added. The plate was shaken for 15 minutes, centrifuged at 3000 revolutions per minute for 5 minutes, and 50 μL of supernatant from each well was applied per TLC lane (Whatman LK6D Silica Gel Plates). Radiolabeled lipids were resolved using a 2-solvent system: Solvent 1 contained a 100:100:100:40:36 mixture of ethyl acetate:isopropyl alcohol:CHCl3:MeOH:0.25% KCl and Solvent 2 a 70:27:3 hexane:diethyl ether:acetic acid mixture. The TLC plate was dried under nitrogen for 30 minutes and [^14C]-standards added to a vacant lane. Bands were visualized and quantitated using a Molecular Dynamics’ Storm 860 PhosphorImager system following 18–36 hours exposure to a Phosphorimager screen.

In series [5] the test system is HEKNaCT cells. The series is described as follows: OCR and ECAR measurements in HEKNaCT cells incubated with citrate (Seahorse). Type of series: cell-based, human. The following applies: 30 μM compound. The method, then: HEKNaCT cells were plated at 12,000 cells/well onto a poly-d-lysine coated XF96 plate (Sigma, Seahorse Biosciences). Cells were plated in culture media containing HG DMEM, 10% FBS, 2 mM glutamine, 1 mM pyruvate, 0.5 mg/mL Geneticin, and 1% penicillin/streptomycin (Life Technologies) and incubated overnight at 37 °C. The following day, the media was changed to Seahorse Biosciences assay medium (Seahorse Biosciences) supplemented with 10 mM glucose and 2 mM pyruvate (Sigma). The plate was pre-incubated for 1 hour in a 37 °C air incubator. […]

The target in series [6] is T1, NaDC1 (SLC13A2) (Homo sapiens, UniProt Q13183).
T1 construct: host or cells: HEK-293, transient (Fugene HD)
T1 sequence (Q13183 1-592): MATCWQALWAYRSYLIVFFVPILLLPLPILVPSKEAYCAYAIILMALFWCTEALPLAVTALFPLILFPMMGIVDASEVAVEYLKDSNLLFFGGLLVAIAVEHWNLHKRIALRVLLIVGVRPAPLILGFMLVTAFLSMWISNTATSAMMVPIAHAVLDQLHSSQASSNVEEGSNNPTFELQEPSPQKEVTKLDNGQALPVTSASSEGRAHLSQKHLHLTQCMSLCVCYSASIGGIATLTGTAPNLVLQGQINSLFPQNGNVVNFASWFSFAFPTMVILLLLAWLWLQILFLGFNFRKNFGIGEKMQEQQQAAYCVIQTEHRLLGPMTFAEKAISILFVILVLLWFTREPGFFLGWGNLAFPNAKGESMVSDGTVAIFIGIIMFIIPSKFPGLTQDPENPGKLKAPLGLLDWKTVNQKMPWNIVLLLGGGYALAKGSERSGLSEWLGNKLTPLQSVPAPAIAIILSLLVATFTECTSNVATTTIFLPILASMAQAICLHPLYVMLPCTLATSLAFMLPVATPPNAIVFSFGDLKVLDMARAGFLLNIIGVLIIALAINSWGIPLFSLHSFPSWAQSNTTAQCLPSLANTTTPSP
The series is described as follows: Inhibition of citrate or succinate uptake in HEKNaDC1 cells. The series is classed as cell-based. The following applies: compound 4: mean of 2 replicates. From the text:
(§7) Protocols to generate the stable cell line overexpressing NaCT or cell transfection with SLC13A2 or SLC13A3 can be found in the supporting information. HEK-293 cells stably transfected with the human sodium Citrate transporter SLC13A5 or transiently transfected with the human SLC13A2 or SLC13A3 transporter were removed from the flasks with dissociation buffer and re-suspended in an equal volume of growth media (DMEM, High Glucose supplemented with 10% heat inactivated fetal bovine serum and 500 μg/ml Geneticin). For the transient transfections, Geneticin was eliminated from the media. Cell suspensions were centrifuged at 1,000 rpm for approximately 5 minutes. Resulting cell pellets were re-suspended in growth media and placed in a 37 °C water bath for approximately 10 minutes prior to a final spin at 1,000 rpm. Following this spin the resulting cell pellets were re-suspended in assay buffer, 142 mM NaCl (or 142 mM choline chloride), 5 mM KCl, 1.2 mM MgSO4, 1.5 mM CaCl, 5 mM glucose and 25 mM HEPES pH 7.4. Cell suspensions were counted and the concentration adjusted as needed with assay buffer to 2e[6] viable cells /mL. 20 μL of cell suspension were added to 384-well cyotstar-T plates followed by the addition of 5 μL of 10× concentration of compound. Cells and compound were incubated at 37 °C for approximately 30 minutes prior to the addition of 25 μL of 300 μM citric acid (16 μM radiolabeled [^14C]-citric acid and 284 μM cold citric acid) to make a 150 μM final concentration of citric acid or 21 μM [^14C]-succinic acid. After substrate addition, the uptake of radioactivity was monitored on Perkin Elmer Microbeta plate reader. Data from reads between 45–90 minutes was used to assess the ability of test compounds to inhibit the uptake of citric or succinic acid. […]
(§8) were plated, and incubated for 48 hours. Following the incubation, NaDC1 and NaDC3 assays were executed identical to the procedure for NaCT. […]
(§9) The solution was heated to reflux until the total volume was reduced to ~25 mL. […]

For series [7], the target named is T2, NaDC3 (SLC13A3) (Homo sapiens, UniProt Q8WWT9).
T2 construct: host or cells: HEK-293, transient (Fugene HD)
T2 sequence (Q8WWT9 1-602): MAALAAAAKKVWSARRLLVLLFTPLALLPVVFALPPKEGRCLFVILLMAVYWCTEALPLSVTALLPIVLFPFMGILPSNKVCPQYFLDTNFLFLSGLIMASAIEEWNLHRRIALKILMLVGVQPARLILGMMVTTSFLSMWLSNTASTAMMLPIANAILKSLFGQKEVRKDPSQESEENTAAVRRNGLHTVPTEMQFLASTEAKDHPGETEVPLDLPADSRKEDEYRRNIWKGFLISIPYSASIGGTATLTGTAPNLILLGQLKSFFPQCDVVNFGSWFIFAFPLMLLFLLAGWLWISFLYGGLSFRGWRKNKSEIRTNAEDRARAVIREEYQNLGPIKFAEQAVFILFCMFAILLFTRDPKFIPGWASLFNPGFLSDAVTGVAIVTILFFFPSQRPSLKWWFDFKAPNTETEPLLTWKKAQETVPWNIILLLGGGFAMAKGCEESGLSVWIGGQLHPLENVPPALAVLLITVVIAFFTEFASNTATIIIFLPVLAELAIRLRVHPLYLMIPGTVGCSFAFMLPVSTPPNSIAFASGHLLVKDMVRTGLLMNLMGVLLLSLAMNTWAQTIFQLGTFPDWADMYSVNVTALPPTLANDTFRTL
Nature of the series: Inhibition of citrate or succinate uptake in HEKNaDC3 cells. The following applies: compound 4: mean of 2 replicates. Type of series: cell-based.
Text: as §7, §8, §9

Series [8] addresses NaCT (SLC13A5) (Homo sapiens, UniProt Q86YT5). Nature of the series: Inhibition of citrate uptake in HEKNaCT cells. The series is classed as cell-based. The settings on record: geometric mean of at least 3 replicates.
Procedure: HEK-293 cells stably transfected with the human sodium Citrate transporter SLC13A5 or transiently transfected with the human SLC13A2 or SLC13A3 transporter were removed from the flasks with dissociation buffer and re-suspended in an equal volume of growth media (DMEM, High Glucose supplemented with 10% heat inactivated fetal bovine serum and 500 μg/ml Geneticin). For the transient transfections, Geneticin was eliminated from the media. Cell suspensions were centrifuged at 1,000 rpm for approximately 5 minutes. Resulting cell pellets were re-suspended in growth media and placed in a 37 °C water bath for approximately 10 minutes prior to a final spin at 1,000 rpm. […] Cell suspensions were counted and the concentration adjusted as needed with assay buffer to 2e[6] viable cells /mL. 20 μL of cell suspension were added to 384-well cyotstar-T plates followed by the addition of 5 μL of 10× concentration of compound. […] After substrate addition, the uptake of radioactivity was monitored on Perkin Elmer Microbeta plate reader. Data from reads between 45–90 minutes was used to assess the ability of test compounds to inhibit the uptake of citric or succinic acid.
Series [9] has as its target T3, NaCT in cryopreserved human hepatocytes (Homo sapiens, UniProt Q86YT5).
T3 construct: the transporter was in its native environment, we used cryopreserved human hepatocytes; endogenous in cells; host or cells: cryopreserved human hepatocytes
Nature of the series: Inhibition of citrate uptake in cryopreserved human hepatocytes. The series is classed as cell-based. The settings on record: geometric mean of at least 3 replicates.

Series [10] is described as follows: Passive permeability, MDCK-LE cell monolayer. The series is classed as in vitro ADME. The settings on record: dog, MDCK; read-out: Papp (passive permeability). The method, then:
Passive permeability was assessed using MDCK-LE cell monolayer as described previously in Di et al., (2011)[44].

A short description of series [11]: Stability in assay media. The series is classed as in vitro ADME. The settings on record: read-out: t1/2 in assay media.
For series [12], the system named is HEKNaCT cells. The series is described as follows: Stability in HEKNaCT cells. The settings on record: data not shown. Type of series: in vitro ADME, human.
The nature of series [13]: Stability in human hepatocytes. The following applies: metabolically competent human hepatocytes. The series is classed as in vitro ADME.
In series [14] the test system is parental HEK-293 cells. The series is described as follows: Whole cell binding experiments with [3H]-2, parental HEK-293 cells. Also noted: species or system human. The following applies: 75 nM. The method, then: Parental HEK-293 cells or HEK-293 cells expressing SLC13A5 were incubated with [^3H]-2 at 75 nM. See supplemental methods for additional details. […]
were plated, and incubated for 48 hours. Following the incubation, NaDC1 and NaDC3 assays were executed identical to the procedure for NaCT.
Binding experiments with [3H]-2. Parental HEK-293 cells or cells overexpressing SLC13A5 were incubated in the media with 75 nM of [3H]-2. These cells were also incubated with either 0, […]
was monitored for 2-hours. The uptake of radioactivity was monitored on Perkin Elmer Microbeta plate reader. In experiments in which cold 2 was added to the media, after 2-hours, the cells were washed 3x with PBS, and then in fresh media 100 μM cold 2 was added for 2-hours and the disappearance of radioactivity was monitored using a Perkin Elmer Microbeta […]
Intra- and extracellular concentrations of compound in cellular assays. kpuu values were determined by measuring total cell and media concentrations corrected for their respective fraction unbound. Detailed methods to determine intra- and extracellular concentrations of […]
Crystallization and X-ray analysis of (S)-2-(4-(tert-butyl)phenethyl)-2-hydroxysuccinic […]
Crystallization conditions. Ethyl acetate (50 mL) was added to (S)-2-(4-(tert-butyl)phenethyl)- 2-hydroxysuccinic acid (3) ([…], 46.2 mmol). The suspension turned to a solution upon heating. […]

T3 sequence (Q86YT5 whole entry): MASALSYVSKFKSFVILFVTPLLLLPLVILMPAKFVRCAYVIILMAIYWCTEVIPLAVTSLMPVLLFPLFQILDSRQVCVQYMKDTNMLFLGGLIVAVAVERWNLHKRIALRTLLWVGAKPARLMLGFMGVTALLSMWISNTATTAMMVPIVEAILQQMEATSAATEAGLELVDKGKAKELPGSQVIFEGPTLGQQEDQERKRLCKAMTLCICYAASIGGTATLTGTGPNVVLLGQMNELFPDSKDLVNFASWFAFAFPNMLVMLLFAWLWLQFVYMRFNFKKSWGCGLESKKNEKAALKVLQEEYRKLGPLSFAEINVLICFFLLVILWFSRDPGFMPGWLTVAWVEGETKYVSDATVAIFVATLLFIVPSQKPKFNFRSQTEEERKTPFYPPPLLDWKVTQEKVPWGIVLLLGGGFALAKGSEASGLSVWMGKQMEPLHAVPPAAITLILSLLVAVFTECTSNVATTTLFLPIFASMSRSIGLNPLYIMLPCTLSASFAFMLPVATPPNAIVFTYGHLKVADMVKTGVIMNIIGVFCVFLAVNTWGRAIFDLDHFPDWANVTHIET
NaCT (SLC13A5), sequence (Q86YT5 whole entry): as above

With `CC(C)(C)c1ccc(CCC(O)(CC(=O)O)C(=O)O)cc1` (stereo not drawn) [Compound 1], the “cellular toxicity (CellTiter-glo assessment)” value in [1] is given as “No cellular toxicity”.
Consider `CC(C)(C)c1ccc(CC[C@](O)(CC(=O)O)C(=O)O)cc1` [Compound 3, (S)-2-(4-(tert-butyl)phenethyl)-2-hydroxysuccinic acid], for which the values for the Kp uu at 1 h, 1 µM in [2] and in series [3] were 0.6 ± 0.2 and 0.4 ± 0.1, respectively. The “label incorporation in TAG” value in series [4] is “not”. Further, in series [5], the “effect on citrate induced increase in oxygen consumption rate (OCR)” value is on record as “not”. Further, in [5] (citrate), the “effect on citrate suppressed extracellular acidification rate (ECAR)” value is listed as “not”.
Consider `O=C(O)C[C@](O)(CCc1ccc(I)cc1)C(=O)O` [Compound 4], for which the IC50 – broadly, the concentration at which inhibition is half-maximal – amounted to 5.5 µM in [6] and 3.2 µM in [7].
For `CCOC(=O)[C@@](O)(CCc1ccc(C(C)(C)C)cc1)CC(=O)O` [Compound 5], the figures for the IC50 in [8] and in series [9] were greater than 25 µM and 6.76 µM, respectively. Moreover, in [10], the Papp – broadly, the rate of passage across a membrane or cell layer, normalised by area and donor concentration – stood at 13 ×10⁻⁶ cm/s. Besides, the half-life is greater than 120 min in series [11] and 29 min in series [13]. Also, the “stability in HEKNaCT cells” value in series [12] is recorded as “stable”.
With `[3H]C([3H])(c1ccc(C(C)(C)C)cc1)C([3H])([3H])[C@@](O)(CC(=O)O)C(=O)O` [[^3H]-2], the “interaction with parental HEK-293 cells” value in [14] is “no significant interaction”.
